Assay results published in US11247001B2, “Delivery device with cantilever structure and associated method of use” (De Motu Cordis Pty Ltd, priority 2016, dated 2022).

Experiment: Particle deagglomeration: particle size distribution of the dose of dry powder emitted by the delivery device
Type: physicochemical
Settings: for emitted dose: dry powder emitted from delivery device comprising a container for storing dry powder (FIG. 28, FIG. 29); for deagglomerated to the typical inhalable range: share of dry powder, delivery device with container
Source text: The performance of the delivery device can be measured by how closely the particle size distribution of the emitted powder approaches the original distribution.
An embodiment of the device that stored Mannitol on a corrugated reed was also compared to the embodiment of the device that stored and dispensed Mannitol from a blister.

| emitted dose | deagglomerated to the typical inhalable range | Fine Particle Fraction < 5 um (%) (Table 2, performance of device, N = 8, 68% CI) | FPF (device that dispensed from a blister) | FPF (device that dispensed from the reed (corrugated reed)) | FPF (device with a reed) | Fine Particle Fraction < 5 um (%) (device with reed, N = 10, 68% CI) | FPF (device without a reed) | Fine Particle Fraction < 5 um (%) (device without reed, same flow conditions, N = 10, 68% CI) | Fine Particle Fraction < 5 um (%) (powder stored in and dispensed from blister, N = 10, 68% CI) | Fine Particle Fraction < 5 um (%) (powder stored in and dispensed from corrugated reed, N = 5, 68% CI) | SMILES |
| --- | --- | --- | --- | --- | --- | --- | --- | --- | --- | --- | --- |
| 72.4-92.0% | about 35% |  |  |  |  |  |  |  |  |  | CNCC(O)c1ccc(O)c(O)c1 (stereo not shown) [Adrenaline] |
| 75.3-86.1% | About 50% | 48.0-60.9% | about 43% | about 44% | about 43% | 38.9-47.4% | about 31% | 26.8-35.1% | 38.9-47.4% | 40.6-48.2% | OC[C@@H](O)[C@@H](O)[C@H](O)[C@H](O)CO [Mannitol] |
